{"source": "patent US20060079481A1", "about": "“Method of treating/preventing mucositis” (priority 2004, published 2006)", "origin": "cited, not measured here", "key": {"oral mucositis [1]": {"tested_on": "oral mucositis", "details": "for risk of indirect mucotoxicity from bacteria and fungi: prophylactic use; for risk of indirect mucotoxicity from bacteria and fungi / effect in oral mucositis: literature reports"}, "oral mucositis [2]": {"tested_on": "oral mucositis", "details": "Dodd et al. 1996"}}, "data": [{"molecule": "Clc1ccccc1C(c1ccccc1)(c1ccccc1)n1ccnc1", "note": "[clotrimazole]", "values": [{"measurement": "risk of indirect mucotoxicity from bacteria and fungi", "setting": "oral mucositis [1]", "value": "reduce the risk"}]}, {"molecule": "O=c1[nH]cc(F)c(=O)[nH]1", "note": "[5-fluorouracil]", "values": [{"measurement": "prevalence of chemotherapy-induced oral mucositis", "setting": "oral mucositis [2]", "value": 75, "unit": "%"}]}, {"molecule": "Sucralfate", "values": [{"measurement": "benefit in oral mucositis", "setting": "oral mucositis [1]; patients receiving a cisplatin/fluorouracil regimen for various solid tumors (Pfeiffer et al. 1990)", "value": "modest benefit"}]}, {"molecule": "[H]/N=C(\\N/C(=N/[H])NCCCCCCNC(=N)NC(=N)Nc1ccc(Cl)cc1)Nc1ccc(Cl)cc1", "note": "[chlorhexidine]", "values": [{"measurement": "risk of indirect mucotoxicity from bacteria and fungi", "setting": "oral mucositis [1]", "value": "reduce the risk"}]}, {"molecule": "CC(=O)CCCCn1c(=O)c2c(ncn2C)n(C)c1=O", "note": "[pentoxifylline]", "values": [{"measurement": "effect in oral mucositis", "setting": "oral mucositis [1]", "value": "failed to show effect"}]}, {"molecule": "Oc1ncnc2[nH]ncc12", "note": "[allopurinol]", "values": [{"measurement": "effect in oral mucositis", "setting": "oral mucositis [1]", "value": "failed to show effect"}]}, {"molecule": "C[C@@H]1[C@H](O)[C@@H](C)/C=C/C=C/CC/C=C/C=C/C=C/C=C/C(O[C@H]2O[C@H](C)[C@@H](O)[C@H](N)[C@@H]2O)CC2O[C@](O)(CC(O)C(O)CCC(O)CC(O)CC(O)CC(=O)O[C@H]1C)CC(O)C2C(=O)O", "note": "(stereo partly drawn) [nystatin]", "values": [{"measurement": "risk of indirect mucotoxicity from bacteria and fungi", "setting": "oral mucositis [1]", "value": "reduce the risk"}]}, {"molecule": "CCCCC[C@H](O)/C=C/[C@H]1[C@H](O)CC(=O)[C@@H]1C/C=C\\CCCC(=O)O", "note": "[prostaglandin E2]", "values": [{"measurement": "effect in oral mucositis", "setting": "oral mucositis [1]", "value": "failed to show effect"}]}, {"molecule": "filgrastim: a granulocyte colony-stimulating factor (protein, chains of the INN, looked up) MTPLGPASSLPQSFLLKCLEQVRKIQGDGAALQEKLCATYKLCHPEELVLLGHSLGIPWAPLSSCPSQALQLAGCLSQLHSGLFLYQGLLQALEGISPELGPTLDTLQLDVADFATTIWQQMEELGMAPALQPTQGAMPAFASAFQRRAGGVLVASHLQSFLEVSYRVLRHLAQP", "values": [{"measurement": "effect in oral mucositis", "setting": "oral mucositis [1]", "value": "failed to show effect"}]}]}
